Measured values published in PubChem BioAssay (NCI).
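The concentration for 50% growth inhibition is given as GI50. TGI denotes the concentration required for complete inhibition of growth.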

What was measured:
Test in all cases: growth of human tumour cells (NCI), 384-well format
[1] = test system: 786-0 renal
[2] = test system: A498 renal
[3] = test system: A549 NSCLC
[4] = test system: ACHN renal
[5] = test system: BT-549 breast
[6] = test system: CAKI-1 renal
[7] = test system: CCRF-CEM leukemia
[8] = test system: COLO 205 colon
[9] = test system: DU-145 prostate
[10] = test system: HCC-2998 colon
[11] = test system: HCT-116 colon
[12] = test system: HCT-15 colon
[13] = test system: HL-60(TB) leukemia
[14] = test system: HOP-62 NSCLC
[15] = test system: HOP-92 NSCLC
[16] = test system: HT29 colon
[17] = test system: IGROV1 ovarian
[18] = test system: K-562 leukemia
[19] = test system: KM12 colon
[20] = test system: LOX IMVI melanoma
[21] = test system: M14 melanoma
[22] = test system: MALME-3M melanoma
[23] = test system: MCF7 breast
[24] = test system: MDA-MB-231 breast
[25] = test system: MDA-MB-435 melanoma
[26] = test system: MDA-MB-468 breast
[27] = test system: MOLT-4 leukemia
[28] = test system: NCI-H226 lung
[29] = test system: NCI-H23 lung
[30] = test system: NCI-H322M lung
[31] = test system: NCI-H460 NSCLC
[32] = test system: NCI-H522 lung
[33] = test system: NCI/ADR-RES ovarian
[34] = test system: OVCAR-3 ovarian
[35] = test system: OVCAR-4 ovarian
[36] = test system: OVCAR-5 ovarian
[37] = test system: OVCAR-8 ovarian
[38] = test system: PC-3 prostate
[39] = test system: RPMI-8226 leukemia
[40] = test system: RXF 393 renal
[41] = test system: SF-268 CNS
[42] = test system: SF-295 CNS
[43] = test system: SF-539 CNS
[44] = test system: SK-MEL-2 melanoma
[45] = test system: SK-MEL-28 melanoma
[46] = test system: SK-MEL-5 melanoma
[47] = test system: SK-OV-3 ovarian
[48] = test system: SN12C renal
[49] = test system: SNB-19 CNS
[50] = test system: SR leukemia
[51] = test system: SW-620 colon
[52] = test system: T-47D breast
[53] = test system: TK-10 renal
[54] = test system: U251 glioblastoma
[55] = test system: UACC-257 melanoma
[56] = test system: UACC-62 melanoma
[57] = test system: UO-31 renal

## COc1nnc2ccc(N3CCC(c4ccc(OCCN5CCN(C)C(=O)[C@H]5C)cc4)CC3)nn12
[1]
  GI50: 45.5 nM
  TGI: 13400 nM
[2]
  GI50: 53.8 nM
  TGI: 655 nM
[3]
  GI50: 42.5 nM
  TGI: 1640 nM
[4]
  GI50: 108 nM
  TGI: 3050 nM
[5]
  GI50: 23.1 nM
  TGI: 214 nM
[6]
  GI50: 16.9 nM
  TGI: 382 nM
[7]
  GI50: 26.8 nM
  TGI: 166 nM
[8]
  GI50: 35.9 nM
  TGI: 248 nM
[9]
  GI50: 369 nM
  TGI: > 100000 nM
[10]
  GI50: 13.3 nM
  TGI: 48.8 nM
[11]
  GI50: 37.7 nM
  TGI: 2530 nM
[12]
  GI50: 31.7 nM
  TGI: 194 nM
[13]
  GI50: < 10 nM
  TGI: 19.1 nM
[14]
  GI50: 27.4 nM
  TGI: 475 nM
[15]
  GI50: 12.7 nM
  TGI: 74.5 nM
[16]
  GI50: 28.8 nM
  TGI: 2120 nM
[17]
  GI50: 29.3 nM
  TGI: 162 nM
[18]
  GI50: 35 nM
  TGI: 3710 nM
[19]
  GI50: 46 nM
  TGI: 12500 nM
[20]
  GI50: 27.2 nM
  TGI: 61 nM
[21]
  GI50: 18.3 nM
  TGI: 1570 nM
[22]
  GI50: 73.8 nM
  TGI: 791 nM
[23]
  GI50: 11.7 nM
  TGI: 158 nM
[24]
  GI50: 46.2 nM
  TGI: 2570 nM
[25]
  GI50: 75.9 nM
  TGI: > 100000 nM
[26]
  GI50: < 10 nM
  TGI: 51.2 nM
[27]
  GI50: 14.3 nM
  TGI: 37.7 nM
[28]
  GI50: 38.9 nM
  TGI: 416 nM
[29]
  GI50: 62.7 nM
  TGI: 629 nM
[30]
  GI50: 28.9 nM
  TGI: 640 nM
[31]
  GI50: 58.7 nM
  TGI: 15400 nM
[32]
  GI50: < 10 nM
  TGI: 46 nM
[33]
  GI50: 269 nM
  TGI: 2180 nM
[34]
  GI50: 17.2 nM
  TGI: 135 nM
[35]
  GI50: 10.2 nM
  TGI: 40.2 nM
[36]
  GI50: 60.5 nM
  TGI: 2970 nM
[37]
  GI50: 23.9 nM
  TGI: 218 nM
[38]
  GI50: 122 nM
  TGI: 90700 nM
[39]
  GI50: 12.2 nM
  TGI: 33.8 nM
[40]
  GI50: 22.8 nM
  TGI: 78.8 nM
[41]
  GI50: 58.6 nM
  TGI: 14400 nM
[42]
  GI50: 86.4 nM
  TGI: 4970 nM
[43]
  GI50: 53.9 nM
  TGI: 8620 nM
[44]
  GI50: < 10 nM
  TGI: 41.3 nM
[45]
  GI50: 30.6 nM
  TGI: 1490 nM
[46]
  GI50: 17.8 nM
  TGI: 98.6 nM
[47]
  GI50: 17.3 nM
  TGI: 144 nM
[48]
  GI50: 165 nM
  TGI: 1480 nM
[49]
  GI50: 311 nM
  TGI: 77900 nM
[50]
  GI50: < 10 nM
  TGI: 20.8 nM
[51]
  GI50: 114 nM
  TGI: 1280 nM
[52]
  GI50: 29.7 nM
  TGI: 537 nM
[53]
  GI50: 34.8 nM
  TGI: 460 nM
[54]
  GI50: 77.1 nM
  TGI: 11900 nM
[55]
  GI50: 25 nM
  TGI: 573 nM
[56]
  GI50: < 10 nM
  TGI: 96.4 nM
[57]
  GI50: 56.9 nM
  TGI: 1560 nM
